Results reported in patent US8501246B2, “Cosmetic composition containing lingonberry extract and its uses” (Beijing Gingko Group Biological Technology, Co., Ltd., priority 2007, dated 2013).

How the values were obtained:
Format in all cases: cell-based
B16 melanocytes [1] = assay: MTT cell multiplication / cell survival ratio of B16 melanocytes; details: blank = 100, n = 6
Description: B16 melanocytes (from SIBCB) were cultivated with RPMI-1640 culture fluid containing about 10% newborn calf serum and penicillium—streptomycin under the condition of about 37° C., about 5% CO2. Digest the melanocytes with about 0.125% trypsin (Difco, US) when the cell fusion reached more than about 80%.
The activity of melanocytes multiplication was determined by measurement of […] (MTT). The B16 melanocytes at densities of about 1×10^5 were inoculated in 24-well cell cultured plate. The culture fluid was changed next day and the tested substances in different concentration were added individually: the lingonberry extract III prepared in example 3 (comprised anthocyanidin about 10%, OPC about 35% and resveratrol about 10%), arbutin bought from the market, and blank as control group.
After 20 hours cultivation and adding about 0.15 ml MTT, the cells were cultivated continuously for about 4 hours. Centrifuged at 3000 rpm for about 10 min and deserted the supernatant, cultivated cells in every well were added DMSO (about 1%) about 1 ml and shook for dissolving thoroughly. Then about 150 μl cultivated cells aspiration were added into 96-well cell cultured plate. The OD value of the aspiration was measured with MQX200 micro-plate spectrophotometer (Bio-Tek, US), at 570 nm excitation wave length and 630 nm reference wave length.
Calculated the inhibition ratio of tested agents on melanocytes using the following formula: melanocytes multiplication inhibition ratio=(1−OD of tested group/OD of control group)*100%
The experimental method was the same as example 4. The lingonberry extract III was prepared by the method in example 3, pine bark extract and grape seed extract were both bought from market, blank was used as control group.

[2] = target: T1, B16 melanocytes' tyrosinase (Mus musculus, UniProt P11344); assay: Inhibition rate of B16 melanocytes' tyrosinase activity (L-dopa oxidation, OD 475 nm); details: 3 days, n = 6
T1 construct: The cells were dissolved by 1% Troton X-100; host or cells: B16 melanocytes (melanoma cells)
T1 sequence (P11344 19-533): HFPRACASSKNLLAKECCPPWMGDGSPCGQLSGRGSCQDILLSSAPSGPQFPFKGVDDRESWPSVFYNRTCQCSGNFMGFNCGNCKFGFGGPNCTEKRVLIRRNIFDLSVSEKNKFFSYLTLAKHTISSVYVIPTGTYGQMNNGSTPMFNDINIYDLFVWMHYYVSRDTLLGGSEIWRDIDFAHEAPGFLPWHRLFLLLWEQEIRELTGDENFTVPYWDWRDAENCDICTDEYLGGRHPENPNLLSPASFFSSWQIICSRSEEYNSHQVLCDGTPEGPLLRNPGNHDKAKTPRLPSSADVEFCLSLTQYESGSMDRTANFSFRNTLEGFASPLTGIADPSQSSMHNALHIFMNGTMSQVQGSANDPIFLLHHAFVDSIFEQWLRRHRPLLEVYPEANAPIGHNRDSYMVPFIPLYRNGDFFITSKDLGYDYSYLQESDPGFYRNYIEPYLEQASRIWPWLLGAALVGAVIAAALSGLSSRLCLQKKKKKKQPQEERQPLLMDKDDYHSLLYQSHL
Description: (§1) B16 melanocytes(from SIBCB) were cultivated with RPMI-1640 culture fluid containing 10% newborn calf serum and penicillium—streptomycin under the condition of about 37° C., 5% CO2. The melanocytes were digested with about 0.125% trypsin (Difco, US) to be passaged or tested when the cell fusion reached more than 80%.
Tyrosinase activity is determined by the speed of dopa being oxidized into dopaquinone. L-dopa was used as catalysis substrate. Optical density (OD) of dopaquinone was determined at 475 nm by improved Marlinez-Esparza method. (Ando H, Itoh A, Mishima Y et al., Correlation between the number of melanosomes, tyrosinase mRNA levels, and tyrosinase activity cultured murine melanoma cells in response to various melanogenesis regulatory agents. J Cell Physiol, 1995, 163: 608-614.). The higher of the OD, the stronger of the tyrosinase.
The lingonberry extract III was prepared by the method in example 3, other materials were all bought from market.
After 3 days of effects of tested substance, the supernatant was deserted and the remainder was washed for 3 times with pH 7.0 PBS after centrifuging at 1000 rpm for 5 min every time. The cells were dissolved by 1% Troton X-100 400 μl adding in every well of the cultured plate. 100 μl solution in every well was taken and then added into 96-well cultured plate. After pre-temperature at 37° C., 100 μl 1.7% L-dopa (sigma, US) was added into every well. The OD A value then was determined every 10 min within 1 hour at 475 nm and 37° C., using blank as zero adjustment.
Calculated every tested agents' inhibition rate of B16 melanocytes' tyrosinase activity using the following formula: inhibition rate of melanocytes' tyrosinase activity=(1−OD of tested group/OD of control group)*100%
Experiment method was the same as example 6. The lingonberry extract I, II and III used as tested substance were prepared by the method in example 1, 2 and 3 respectively.

B16 melanocytes [3] = assay: Inhibition rate of melanin content (melanogenesis) in B16 melanocytes; details: Melanocyte, 72 hours, n = 4
Description: as §1, with “containing about” for “containing”, “of” for “of about”, “than about” for “than”
After the cells dissolved in strong base solution, melanin was dissolved and then the OD was tested. Melanin content was determined by Hosoi improved method. (Victoria M, Virador, Nobuhiko Kobayashi et al, A standardized protocol for assessing regulators of pigmentation. Analytical Biochemistry, 1999, 270:207˜219.)
B16 melanocytes (1×10^5) were cultivated in 6-well cultured plate. After 24 hours incubation the solution was changed and different kinds of tested substances in different concentration were added respectively. The lingonberry extract III was prepared by the method in example 3, other substances were all bought from market.
After 72 hours, reactants were washed by PBS for 2 times, dried by air-drying, dissolved into 400 μl 1N NaOH (containing 1% DMSO), heated at 80° C. for 1 hour and then cooled. The OD was tested by enzyme-linked immunosorbent assay instrument at 475 nm.
Calculated every tested agents' inhibition rate of melanin content using the following formula: inhibition rate of melanin content=[1−(OD of tested group/well cell density of tested group)/(OD of control group/well cell density of control group)]*100%
Experiment method was the same as example 7. The lingonberry extract I, II and III used as tested substance were prepared by the method in example 1, 2 and 3 respectively.

Structure (SMILES): OC[C@H]1O[C@@H](Oc2ccc(O)cc2)[C@H](O)[C@@H](O)[C@@H]1O [arbutin]
- cell survival ratio (B16 melanocytes [1]; 20 mg/L): 110.72 ± 0.41%
- cell survival ratio (B16 melanocytes [1]; 40 mg/L): 94.30 ± 0.45%
- cell survival ratio (B16 melanocytes [1]; 60 mg/L): 91.74 ± 0.39%
- cell survival ratio (B16 melanocytes [1]; 80 mg/L): 79.66 ± 1.08%
- inhibition at 1 µg/mL ([2]; 1 mg/L): 7.19%
- inhibition at 5 µg/mL ([2]; 5 mg/L): 10.4 ± 2.97%
- inhibition at 10 µg/mL ([2]; 10 mg/L): 20.5 ± 1.63%
- inhibition at 20 µg/mL ([2]; 20 mg/L): 46.4 ± 2.53%
- inhibition at 30 µg/mL ([2]; 30 mg/L): 53.3 ± 2.27%
- inhibition at 1 µg/mL (B16 melanocytes [3]; 1 mg/L): 7.27 ± 2.29%
- inhibition at 5 µg/mL (B16 melanocytes [3]; 5 mg/L): 7.59 ± 0.35%
- inhibition at 10 µg/mL (B16 melanocytes [3]; 10 mg/L): 6.23 ± 0.86%
- inhibition at 20 µg/mL (B16 melanocytes [3]; 20 mg/L): 10.8 ± 0.33%
- inhibition at 30 µg/mL (B16 melanocytes [3]; 30 mg/L): 12.1 ± 1.3%
